# According to the SangsterLogP compilation:
# Test: method code SF-AS, from DOI: 10.1016/0223-5234(89)90056-1
# Settings: pH 7.4
row,Compound,logD
1,Cn1cc([N+](=O)[O-])c2cccnc21,0.49
2,COc1nc2c(c(=O)n(C)c(=O)n2C)n1C,-0.09
3,O=C(Cn1cc([N+](=O)[O-])c2cccnc21)NCCO,-0.19
4,O=[N+]([O-])c1cn(CCBr)c2ncccc12,1.95
5,O=C(Cn1cccc2c([N+](=O)[O-])cnc1-2)NCCCN1CCOCC1,-0.52
6,O=[N+]([O-])c1cn(CC(O)CO)c2ncccc12 (stereo not given),-0.28
7,CCOC(=O)Cn1cc([N+](=O)[O-])c2cccnc21,0.57
8,CCOC(=O)Cn1cccc2c([N+](=O)[O-])cnc1-2,-0.12
9,O=C(Cn1cc([N+](=O)[O-])c2cccnc21)NCCCN1CCOCC1,-0.15
10,O=[N+]([O-])c1c[nH]c2nccnc12,-0.23
